Assay [1] has as its target T1, EP2 subtype of the human PGE2 receptor (Homo sapiens, UniProt P43116).
T1 construct: host or cells: cells in a cell culture plate
The assay can be described thus: cellular cAMP agonism assay. To be noted: without PGE2. Type of assay: cell-based. The method, then:
(§1) The binding of PGE2 to the EP2 subtype of the human PGE2 receptor induces activation of membrane-associated adenylate cyclases and leads to the formation of cAMP. In the presence of the phosphodiesterase inhibitor IBMX, cAMP which has accumulated due to this stimulation and been released by cell lysis is employed in a competitive detection method. In this assay, the cAMP in the lysate competes with cAMP-XL665 for binding of an Eu cryptate-labelled anti-cAMP antibody.
(§2) The two signals are measured in a suitable measuring instrument with a time lag, i.e. after the background fluorescence has declined.
1.2.2 Agonism Assay (Data for Each Well of a 384-Well Plate): […]
After incubation at room temperature (RT; volume: 15 μl) for 60 minutes, the reaction is then stopped by adding 5 μl of lysis buffer and incubated at RT for a further 20 min (volume: 20 μl). The cell lysate is then transferred into a measuring plate and measured in accordance with the manufacturer's information (cyclic AMP kit Cisbio International # 62AMPPEC).

Assay [2] addresses T1, EP2 subtype of the human PGE2 receptor. In words: cAMP antagonism assay (EP2 receptor signal, HTRF cAMP detection). Type of assay: cell-based. Conditions: in the presence of the agonist PGE2.
From the text: 1. Detection of the Antagonism of the Human Prostaglandin E2 (Subtype EP2 Receptor Signal
as §1, §2
1.2.1 Antagonism Assay (Data for Each Well of a 384-Well plate): […]
After preincubation at room temperature (RT) for 30 minutes, 5 μl of a 4×PGE2 solution (11 nM) are added, and incubation is carried out in the presence of the agonist at RT for a further 60 min (volume: 20 μl) before the reaction is then stopped by adding 5 μl of lysis buffer and incubated at RT for a further 20 min (volume: ˜25 μl). The cell lysate is then transferred into a measuring plate and measured in accordance with the manufacturer's information (cyclic AMP kit Cisbio International # 62AMPPEC).
Background: Time-resolved FRET reads energy transfer from a long-lived donor to a nearby acceptor.

pIC50: −log10 of the molar value.

T1 sequence (P43116 whole entry): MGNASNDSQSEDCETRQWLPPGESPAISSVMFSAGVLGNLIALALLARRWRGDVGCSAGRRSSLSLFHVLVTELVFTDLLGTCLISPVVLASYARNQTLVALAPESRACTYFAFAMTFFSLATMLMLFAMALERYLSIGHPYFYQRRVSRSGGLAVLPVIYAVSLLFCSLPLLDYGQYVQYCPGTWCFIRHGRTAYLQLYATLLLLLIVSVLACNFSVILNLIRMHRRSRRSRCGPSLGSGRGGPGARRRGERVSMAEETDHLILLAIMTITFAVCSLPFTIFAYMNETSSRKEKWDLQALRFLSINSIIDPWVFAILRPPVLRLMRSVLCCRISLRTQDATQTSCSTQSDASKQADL

In the case of `Cc1[nH]c2c(F)ccc(C)c2c1CCNc1cc(NCc2cccnc2)ncn1` [Example 6, N-[2-(7-Fluoro-2,4-dimethyl-1H-indol-3-yl)ethyl]-N′-pyridin-3-ylmethylpyrimidine-4,6-diamine], the “effect in the cellular agonism test” value in assay [1] is “no inhibition”. Also, the pIC50 (usually the IC50 on a negative log10 scale, so that one unit is a factor of ten) in assay [2] was 5.80.

Turning to `Cc1[nH]c2c(F)ccc(C)c2c1CCNc1cc(NCc2ccccc2-c2ccccc2)ncn1` [Example 17, N-Biphenyl-2-ylmethyl-N′-[2-(7-fluoro-2,4-dimethyl-1H-indol-3-yl)ethyl]-pyrimidine-4,6-diamine], the pIC50 in assay [2] was 5.85.

For the origin of these results see patent publication US20090023738A1, “DIAMINOPYRIMIDINES AS MODULATORS OF THE EP2 RECEPTOR” (priority 2007, published 2009).
